Results taken from PMC7026418, “The kinase polypharmacology landscape of clinical PARP inhibitors” (Scientific Reports, 2020).
Like-named read-outs stand apart in the source and are kept apart here.

Tests used:
Test in all cases: biochemical
Set-up in all cases: DiscoveRx KINOMEscan active site-directed competition binding; percent of control kinase bound to immobilised ligand
[1] = target: T1, TNNI3K (Homo sapiens, UniProt Q59H18)
T1 sequence (Q59H18 1-835): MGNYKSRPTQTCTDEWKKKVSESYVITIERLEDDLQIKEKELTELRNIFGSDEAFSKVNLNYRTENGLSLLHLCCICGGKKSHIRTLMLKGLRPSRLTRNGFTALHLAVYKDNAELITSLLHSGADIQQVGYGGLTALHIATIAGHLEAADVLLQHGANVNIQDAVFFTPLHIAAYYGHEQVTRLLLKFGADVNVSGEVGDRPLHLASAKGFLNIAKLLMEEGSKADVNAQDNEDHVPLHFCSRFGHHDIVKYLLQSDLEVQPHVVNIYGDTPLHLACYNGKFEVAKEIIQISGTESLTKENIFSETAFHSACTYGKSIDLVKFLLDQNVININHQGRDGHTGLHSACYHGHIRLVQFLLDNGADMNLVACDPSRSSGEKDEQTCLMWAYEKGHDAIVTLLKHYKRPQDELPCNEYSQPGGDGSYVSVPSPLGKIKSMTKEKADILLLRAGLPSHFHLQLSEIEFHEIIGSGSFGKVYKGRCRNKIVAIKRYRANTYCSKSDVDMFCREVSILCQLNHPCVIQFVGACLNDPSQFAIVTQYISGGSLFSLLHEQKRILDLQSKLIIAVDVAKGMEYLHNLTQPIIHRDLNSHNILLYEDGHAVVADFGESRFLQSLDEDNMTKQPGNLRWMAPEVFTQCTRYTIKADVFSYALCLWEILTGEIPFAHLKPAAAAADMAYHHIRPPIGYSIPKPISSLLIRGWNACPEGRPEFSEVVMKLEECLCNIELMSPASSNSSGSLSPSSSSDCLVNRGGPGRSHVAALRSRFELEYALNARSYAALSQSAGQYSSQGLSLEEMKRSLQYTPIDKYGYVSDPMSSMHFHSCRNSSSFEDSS

[2] = target: T2, FLT3(K663Q) (Homo sapiens, UniProt P36888, K663Q)
T2 sequence (P36888 1-993 K663Q): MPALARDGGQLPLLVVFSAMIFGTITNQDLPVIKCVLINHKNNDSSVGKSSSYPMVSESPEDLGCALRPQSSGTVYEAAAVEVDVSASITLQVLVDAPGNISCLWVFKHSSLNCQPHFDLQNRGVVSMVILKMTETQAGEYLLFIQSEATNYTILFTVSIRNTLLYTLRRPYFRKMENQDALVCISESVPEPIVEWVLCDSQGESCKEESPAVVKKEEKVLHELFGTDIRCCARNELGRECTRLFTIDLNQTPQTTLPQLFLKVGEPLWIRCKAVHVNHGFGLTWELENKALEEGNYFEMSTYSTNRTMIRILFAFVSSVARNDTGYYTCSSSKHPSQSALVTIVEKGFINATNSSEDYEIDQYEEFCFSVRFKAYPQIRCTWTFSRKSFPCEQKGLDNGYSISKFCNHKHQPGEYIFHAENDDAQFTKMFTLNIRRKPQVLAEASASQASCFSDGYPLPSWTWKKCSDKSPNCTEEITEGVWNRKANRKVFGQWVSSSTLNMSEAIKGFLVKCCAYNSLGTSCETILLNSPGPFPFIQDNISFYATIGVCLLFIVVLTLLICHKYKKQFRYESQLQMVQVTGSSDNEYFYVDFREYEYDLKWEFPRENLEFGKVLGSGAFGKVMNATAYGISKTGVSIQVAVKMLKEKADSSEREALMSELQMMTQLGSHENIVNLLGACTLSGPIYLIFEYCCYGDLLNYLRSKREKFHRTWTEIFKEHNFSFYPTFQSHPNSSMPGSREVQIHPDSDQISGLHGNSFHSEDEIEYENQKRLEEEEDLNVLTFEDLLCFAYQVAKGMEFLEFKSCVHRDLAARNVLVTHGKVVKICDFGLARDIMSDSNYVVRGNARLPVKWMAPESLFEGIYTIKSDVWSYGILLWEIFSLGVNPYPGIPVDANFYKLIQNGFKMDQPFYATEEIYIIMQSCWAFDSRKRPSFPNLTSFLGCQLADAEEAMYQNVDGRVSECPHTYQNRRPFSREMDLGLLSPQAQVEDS

[3] = target: KIT(D816V) (Homo sapiens, UniProt P10721, D816V)
[4] = target: BRAF (Homo sapiens, UniProt P15056)
[5] = target: T3, PCTK2 (Homo sapiens, UniProt Q00537)
T3 construct: gene CDK17

[6] = target: ERBB2 (Homo sapiens, UniProt P04626)
[7] = target: ERN1 (Homo sapiens, UniProt O75460)
[8] = read-out: Talazoparib (BMN 673) / %Ctrl @ 10000nM
[9] = read-out: Olaparib / %Ctrl @ 10000nM
[10] = read-out: Rucaparib / %Ctrl @ 10000nM, binding competition, % of control
[11] = read-out: Niraparib (MK-4827) / %Ctrl @ 10000nM

ERN1, sequence (O75460 whole entry): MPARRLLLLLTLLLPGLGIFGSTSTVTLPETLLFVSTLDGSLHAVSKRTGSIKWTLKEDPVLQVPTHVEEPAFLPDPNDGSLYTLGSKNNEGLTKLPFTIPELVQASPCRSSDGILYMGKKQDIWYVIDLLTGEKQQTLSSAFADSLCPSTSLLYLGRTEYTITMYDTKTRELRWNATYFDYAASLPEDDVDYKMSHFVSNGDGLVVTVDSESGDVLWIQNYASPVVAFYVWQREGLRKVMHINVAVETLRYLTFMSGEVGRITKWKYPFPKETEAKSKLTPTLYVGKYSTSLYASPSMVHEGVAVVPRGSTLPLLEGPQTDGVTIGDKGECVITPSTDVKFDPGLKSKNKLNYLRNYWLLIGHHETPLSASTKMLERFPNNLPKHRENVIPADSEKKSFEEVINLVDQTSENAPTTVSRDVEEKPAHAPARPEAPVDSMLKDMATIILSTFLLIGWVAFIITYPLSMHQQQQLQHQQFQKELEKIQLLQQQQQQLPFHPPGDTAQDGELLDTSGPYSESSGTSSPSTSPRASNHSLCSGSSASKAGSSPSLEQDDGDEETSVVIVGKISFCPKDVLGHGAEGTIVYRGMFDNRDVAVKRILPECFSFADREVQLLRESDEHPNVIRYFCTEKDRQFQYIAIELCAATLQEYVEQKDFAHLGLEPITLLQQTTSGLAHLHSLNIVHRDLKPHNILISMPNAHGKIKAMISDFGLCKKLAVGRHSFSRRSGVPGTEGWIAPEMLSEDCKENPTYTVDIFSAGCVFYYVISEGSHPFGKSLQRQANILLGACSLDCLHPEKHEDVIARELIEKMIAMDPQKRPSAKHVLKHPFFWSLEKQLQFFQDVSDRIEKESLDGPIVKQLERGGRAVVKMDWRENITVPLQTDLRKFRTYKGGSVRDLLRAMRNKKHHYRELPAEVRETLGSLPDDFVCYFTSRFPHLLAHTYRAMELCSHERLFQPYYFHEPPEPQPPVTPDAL
KIT(D816V), sequence (P10721 whole entry D816V): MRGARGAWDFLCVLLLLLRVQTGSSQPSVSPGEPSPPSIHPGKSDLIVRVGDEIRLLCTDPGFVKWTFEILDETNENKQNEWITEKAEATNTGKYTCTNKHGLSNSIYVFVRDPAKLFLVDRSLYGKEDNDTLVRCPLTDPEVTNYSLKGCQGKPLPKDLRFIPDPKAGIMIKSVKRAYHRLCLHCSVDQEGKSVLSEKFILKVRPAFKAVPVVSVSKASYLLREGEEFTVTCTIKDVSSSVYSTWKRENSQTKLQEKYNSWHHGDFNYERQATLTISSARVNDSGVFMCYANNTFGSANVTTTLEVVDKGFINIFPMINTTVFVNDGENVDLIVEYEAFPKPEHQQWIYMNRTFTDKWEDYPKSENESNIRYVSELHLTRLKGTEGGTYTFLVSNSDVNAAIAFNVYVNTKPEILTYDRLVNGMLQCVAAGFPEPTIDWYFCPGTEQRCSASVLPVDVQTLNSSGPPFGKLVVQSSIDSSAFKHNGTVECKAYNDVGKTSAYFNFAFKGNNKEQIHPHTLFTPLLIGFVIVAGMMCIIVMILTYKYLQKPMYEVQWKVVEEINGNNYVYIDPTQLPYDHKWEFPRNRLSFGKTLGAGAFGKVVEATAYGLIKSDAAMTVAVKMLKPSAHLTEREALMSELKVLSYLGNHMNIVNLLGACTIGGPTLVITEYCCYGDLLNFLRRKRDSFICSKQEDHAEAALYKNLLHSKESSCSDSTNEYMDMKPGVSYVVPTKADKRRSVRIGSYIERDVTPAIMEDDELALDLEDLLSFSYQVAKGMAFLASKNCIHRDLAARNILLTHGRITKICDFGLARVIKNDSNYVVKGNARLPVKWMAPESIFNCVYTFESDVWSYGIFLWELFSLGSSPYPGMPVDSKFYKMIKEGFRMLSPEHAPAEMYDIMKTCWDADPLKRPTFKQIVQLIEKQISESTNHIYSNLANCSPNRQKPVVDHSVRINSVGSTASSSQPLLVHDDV
T3 sequence (Q00537 whole entry): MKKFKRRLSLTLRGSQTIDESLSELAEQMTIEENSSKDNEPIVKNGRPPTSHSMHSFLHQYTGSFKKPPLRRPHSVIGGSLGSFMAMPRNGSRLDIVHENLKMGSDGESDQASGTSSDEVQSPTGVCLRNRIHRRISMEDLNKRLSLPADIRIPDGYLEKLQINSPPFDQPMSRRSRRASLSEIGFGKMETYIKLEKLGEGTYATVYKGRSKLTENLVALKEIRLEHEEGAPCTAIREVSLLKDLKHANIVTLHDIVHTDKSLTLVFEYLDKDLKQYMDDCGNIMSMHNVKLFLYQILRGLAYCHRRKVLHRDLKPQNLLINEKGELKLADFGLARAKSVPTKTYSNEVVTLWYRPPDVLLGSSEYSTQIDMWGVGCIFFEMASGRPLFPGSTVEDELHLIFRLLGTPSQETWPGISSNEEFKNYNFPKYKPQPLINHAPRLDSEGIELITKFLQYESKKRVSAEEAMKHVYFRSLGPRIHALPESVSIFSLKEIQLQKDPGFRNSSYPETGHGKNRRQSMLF
ERBB2, sequence (P04626 whole entry): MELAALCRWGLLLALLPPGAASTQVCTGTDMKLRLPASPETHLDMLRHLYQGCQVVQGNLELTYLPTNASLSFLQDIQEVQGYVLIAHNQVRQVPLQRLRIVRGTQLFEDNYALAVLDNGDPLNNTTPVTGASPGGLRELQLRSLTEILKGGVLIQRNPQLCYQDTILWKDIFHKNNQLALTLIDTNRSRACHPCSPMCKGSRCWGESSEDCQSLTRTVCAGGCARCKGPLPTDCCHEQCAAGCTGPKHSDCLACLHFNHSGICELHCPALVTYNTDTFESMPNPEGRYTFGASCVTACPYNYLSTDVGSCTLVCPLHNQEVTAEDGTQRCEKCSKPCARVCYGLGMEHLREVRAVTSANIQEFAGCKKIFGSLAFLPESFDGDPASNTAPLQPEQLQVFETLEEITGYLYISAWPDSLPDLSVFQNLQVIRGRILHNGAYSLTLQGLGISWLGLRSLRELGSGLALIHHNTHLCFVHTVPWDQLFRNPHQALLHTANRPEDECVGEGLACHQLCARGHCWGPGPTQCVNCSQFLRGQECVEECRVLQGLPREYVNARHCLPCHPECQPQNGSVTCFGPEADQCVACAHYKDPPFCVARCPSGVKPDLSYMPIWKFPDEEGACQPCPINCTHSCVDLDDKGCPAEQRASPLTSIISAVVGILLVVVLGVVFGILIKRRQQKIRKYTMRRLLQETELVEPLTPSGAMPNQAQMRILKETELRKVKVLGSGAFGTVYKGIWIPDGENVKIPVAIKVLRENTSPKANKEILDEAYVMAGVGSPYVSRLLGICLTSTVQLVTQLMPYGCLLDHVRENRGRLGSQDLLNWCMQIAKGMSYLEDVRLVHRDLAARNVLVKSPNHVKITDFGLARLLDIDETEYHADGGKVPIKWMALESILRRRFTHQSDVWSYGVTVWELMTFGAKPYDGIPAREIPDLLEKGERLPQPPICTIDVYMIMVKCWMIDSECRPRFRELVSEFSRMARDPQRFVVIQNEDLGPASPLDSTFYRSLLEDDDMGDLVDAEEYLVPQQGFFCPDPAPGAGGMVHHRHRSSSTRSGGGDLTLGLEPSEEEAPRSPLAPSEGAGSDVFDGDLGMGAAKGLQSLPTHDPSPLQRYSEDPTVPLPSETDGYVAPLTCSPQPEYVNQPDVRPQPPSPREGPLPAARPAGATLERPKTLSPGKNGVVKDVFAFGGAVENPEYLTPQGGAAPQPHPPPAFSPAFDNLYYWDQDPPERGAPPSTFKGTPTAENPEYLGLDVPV
BRAF, sequence (P15056 whole entry): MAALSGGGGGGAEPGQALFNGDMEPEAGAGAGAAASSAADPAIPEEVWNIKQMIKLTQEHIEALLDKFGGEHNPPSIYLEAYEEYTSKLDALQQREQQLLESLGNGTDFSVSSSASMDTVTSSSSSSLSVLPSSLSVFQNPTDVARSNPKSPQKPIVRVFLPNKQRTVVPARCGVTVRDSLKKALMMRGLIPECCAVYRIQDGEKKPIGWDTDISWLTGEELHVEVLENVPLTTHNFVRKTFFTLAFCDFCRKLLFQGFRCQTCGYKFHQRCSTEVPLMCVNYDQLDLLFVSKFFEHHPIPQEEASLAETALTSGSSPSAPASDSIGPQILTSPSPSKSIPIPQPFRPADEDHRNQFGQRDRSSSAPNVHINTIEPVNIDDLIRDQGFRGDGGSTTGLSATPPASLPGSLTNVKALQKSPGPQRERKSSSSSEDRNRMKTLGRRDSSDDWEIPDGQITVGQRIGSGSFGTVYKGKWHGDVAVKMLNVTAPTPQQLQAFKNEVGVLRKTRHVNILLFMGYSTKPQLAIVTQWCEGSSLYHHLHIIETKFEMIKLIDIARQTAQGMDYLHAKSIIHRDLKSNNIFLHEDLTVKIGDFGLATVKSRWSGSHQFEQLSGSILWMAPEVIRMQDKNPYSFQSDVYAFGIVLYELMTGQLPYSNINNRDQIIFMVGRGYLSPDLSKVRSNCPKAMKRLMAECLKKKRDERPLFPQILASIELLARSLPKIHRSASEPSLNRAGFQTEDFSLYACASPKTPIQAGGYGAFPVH

Structure (SMILES): Cn1ncnc1[C@H]1c2n[nH]c(=O)c3cc(F)cc(c23)N[C@@H]1c1ccc(F)cc1 [Talazoparib]
- percent of control binding at 10 µM [1, 8]: 100%
- percent of control binding at 10 µM [2, 8]: 91%
- percent of control binding at 10 µM [3, 8]: 94%
- percent of control binding at 10 µM [4, 8]: 67%
- percent of control binding at 10 µM [5, 8]: 94%
- percent of control binding at 10 µM [6, 8]: 98%
- percent of control binding at 10 µM [7, 8]: 91%

Structure (SMILES): O=C(c1cc(Cc2n[nH]c(=O)c3ccccc23)ccc1F)N1CCN(C(=O)C2CC2)CC1 [Olaparib]
- percent of control binding at 10 µM [1, 9]: 84%
- percent of control binding at 10 µM [2, 9]: 88%
- percent of control binding at 10 µM [3, 9]: 100%
- percent of control binding at 10 µM [4, 9]: 76%
- percent of control binding at 10 µM [5, 9]: 100%
- percent of control binding at 10 µM [6, 9]: 100%
- percent of control binding at 10 µM [7, 9]: 88%

Structure (SMILES): CNCc1ccc(-c2[nH]c3cc(F)cc4c3c2CCNC4=O)cc1 [Rucaparib]
- percent of control binding at 10 µM [1, 10]: 92%
- Rucaparib / %Ctrl @ 10000nM ([2]; binding competition, % of control): 93%
- percent of control binding at 10 µM [3, 10]: 96%
- percent of control binding at 10 µM [4, 10]: 66%
- percent of control binding at 10 µM [5, 10]: 54%
- percent of control binding at 10 µM [6, 10]: 100%
- percent of control binding at 10 µM [7, 10]: 75%

Structure (SMILES): NC(=O)c1cccc2cn(-c3ccc([C@@H]4CCCNC4)cc3)nc12 [Niraparib]
- percent of control binding at 10 µM [1, 11]: 95%
- percent of control binding at 10 µM [2, 11]: 75%
- percent of control binding at 10 µM [3, 11]: 89%
- percent of control binding at 10 µM [4, 11]: 95%
- percent of control binding at 10 µM [5, 11]: 73%
- percent of control binding at 10 µM [6, 11]: 82%
- percent of control binding at 10 µM [7, 11]: 100%
